Source: PubChem BioAssay (NCI)
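1) Cells in 96-well plates. 2) Compound, 48 h, 5 concentrations. 3) Linear interpolation between surrounding doses. 4) Unreached endpoint = highest concentration. GI50: concentration for 50% inhibition of growth. TGI marks complete inhibition of growth.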

Columns and labels:
Experiment in all cases: NCI-60 cell line screen, 48 h
786-0 renal = test system: 786-0 renal
A498 renal = test system: A498 renal
A549 NSCLC = test system: A549 NSCLC
BT-549 breast = test system: BT-549 breast
CAKI-1 renal = test system: CAKI-1 renal
CCRF-CEM leukemia = test system: CCRF-CEM leukemia
COLO 205 colon = test system: COLO 205 colon
DU-145 prostate = test system: DU-145 prostate
EKVX NSCLC = test system: EKVX NSCLC
HCC-2998 colon = test system: HCC-2998 colon
HCT-116 colon = test system: HCT-116 colon
HCT-15 colon = test system: HCT-15 colon
HL-60(TB) leukemia = test system: HL-60(TB) leukemia
HOP-62 NSCLC = test system: HOP-62 NSCLC
HOP-92 NSCLC = test system: HOP-92 NSCLC
HS 578T breast = test system: HS 578T breast
HT29 colon = test system: HT29 colon
IGROV1 ovarian = test system: IGROV1 ovarian
K-562 leukemia = test system: K-562 leukemia
KM12 colon = test system: KM12 colon
LOX IMVI melanoma = test system: LOX IMVI melanoma
M14 melanoma = test system: M14 melanoma
MALME-3M melanoma = test system: MALME-3M melanoma
MCF7 breast = test system: MCF7 breast
MDA-MB-231 breast = test system: MDA-MB-231 breast
MDA-MB-435 = test system: MDA-MB-435
MOLT-4 leukemia = test system: MOLT-4 leukemia
NCI-H226 lung = test system: NCI-H226 lung
NCI-H23 lung = test system: NCI-H23 lung
NCI-H460 lung = test system: NCI-H460 lung
NCI-H522 lung = test system: NCI-H522 lung
NCI/ADR-RES ovarian = test system: NCI/ADR-RES ovarian
OVCAR-3 ovarian = test system: OVCAR-3 ovarian
OVCAR-4 ovarian = test system: OVCAR-4 ovarian
OVCAR-5 ovarian = test system: OVCAR-5 ovarian
OVCAR-8 ovarian = test system: OVCAR-8 ovarian
PC-3 prostate = test system: PC-3 prostate
RPMI-8226 leukemia = test system: RPMI-8226 leukemia
RXF 393 renal = test system: RXF 393 renal
SF-268 CNS = test system: SF-268 CNS
SF-295 CNS = test system: SF-295 CNS
SF-539 CNS = test system: SF-539 CNS
SK-MEL-2 melanoma = test system: SK-MEL-2 melanoma
SK-MEL-28 melanoma = test system: SK-MEL-28 melanoma
SK-MEL-5 melanoma = test system: SK-MEL-5 melanoma
SK-OV-3 ovarian = test system: SK-OV-3 ovarian
SN12C renal = test system: SN12C renal
SNB-19 CNS = test system: SNB-19 CNS
SNB-75 CNS = test system: SNB-75 CNS
SR leukemia = test system: SR leukemia
SW-620 colon = test system: SW-620 colon
T-47D breast = test system: T-47D breast
TK-10 renal = test system: TK-10 renal
U251 CNS = test system: U251 CNS
UACC-257 melanoma = test system: UACC-257 melanoma
UACC-62 melanoma = test system: UACC-62 melanoma
UO-31 renal = test system: UO-31 renal

COc1ccc(-c2cn(-c3cccc(C(=O)/C=C/c4cc(OC)c(OC)c(OC)c4)c3)c(=O)[nH]2)cc1
GI50 (786-0 renal): 1.61 µM | TGI (786-0 renal): 3.25 µM | GI50 (A498 renal): 4.21 µM | TGI (A498 renal): 14.5 µM | GI50 (A549 NSCLC): 11.8 µM | TGI (A549 NSCLC): > 100 µM | GI50 (BT-549 breast): 2.59 µM | TGI (BT-549 breast): 8.92 µM | GI50 (CAKI-1 renal): 3.05 µM | TGI (CAKI-1 renal): 13.2 µM | GI50 (CCRF-CEM leukemia): 1.74 µM | TGI (CCRF-CEM leukemia): > 100 µM | GI50 (COLO 205 colon): 1.84 µM | TGI (COLO 205 colon): 3.89 µM | GI50 (DU-145 prostate): 2.61 µM | TGI (DU-145 prostate): 8.76 µM | GI50 (EKVX NSCLC): 4.2 µM | TGI (EKVX NSCLC): > 100 µM | GI50 (HCC-2998 colon): 1.64 µM | TGI (HCC-2998 colon): 3 µM | GI50 (HCT-116 colon): 0.371 µM | TGI (HCT-116 colon): 1.38 µM | GI50 (HCT-15 colon): 1.38 µM | TGI (HCT-15 colon): 4.7 µM | GI50 (HL-60(TB) leukemia): 4.28 µM | TGI (HL-60(TB) leukemia): > 100 µM | GI50 (HOP-62 NSCLC): 5.91 µM | TGI (HOP-62 NSCLC): 18.1 µM | GI50 (HOP-92 NSCLC): 14.9 µM | TGI (HOP-92 NSCLC): 67.2 µM | GI50 (HS 578T breast): 3.39 µM | TGI (HS 578T breast): 25.6 µM | GI50 (HT29 colon): 1.28 µM | TGI (HT29 colon): 2.58 µM | GI50 (IGROV1 ovarian): 2.58 µM | TGI (IGROV1 ovarian): 7.42 µM | GI50 (K-562 leukemia): 1.27 µM | TGI (K-562 leukemia): > 100 µM | GI50 (KM12 colon): 1.42 µM | TGI (KM12 colon): 2.75 µM | GI50 (LOX IMVI melanoma): 0.725 µM | TGI (LOX IMVI melanoma): 2.3 µM | GI50 (M14 melanoma): 1.85 µM | TGI (M14 melanoma): 5.21 µM | GI50 (MALME-3M melanoma): 1.79 µM | TGI (MALME-3M melanoma): 6.24 µM | GI50 (MCF7 breast): 0.444 µM | TGI (MCF7 breast): 3.45 µM | GI50 (MDA-MB-231 breast): 5.48 µM | TGI (MDA-MB-231 breast): 25.4 µM | GI50 (MDA-MB-435): 1.86 µM | TGI (MDA-MB-435): 7.49 µM | GI50 (MOLT-4 leukemia): 3.48 µM | TGI (MOLT-4 leukemia): > 100 µM | GI50 (NCI-H226 lung): 35.2 µM | TGI (NCI-H226 lung): > 100 µM | GI50 (NCI-H23 lung): 1.63 µM | TGI (NCI-H23 lung): 4.35 µM | GI50 (NCI-H460 lung): 1.56 µM | TGI (NCI-H460 lung): 3.14 µM | GI50 (NCI-H522 lung): 1.85 µM | TGI (NCI-H522 lung): 4.39 µM | GI50 (NCI/ADR-RES ovarian): 1.7 µM | TGI (NCI/ADR-RES ovarian): 4.67 µM | GI50 (OVCAR-3 ovarian): 1.78 µM | TGI (OVCAR-3 ovarian): 4.23 µM | GI50 (OVCAR-4 ovarian): 3.57 µM | TGI (OVCAR-4 ovarian): > 100 µM | GI50 (OVCAR-5 ovarian): 2.64 µM | TGI (OVCAR-5 ovarian): 5.51 µM | GI50 (OVCAR-8 ovarian): 2.53 µM | TGI (OVCAR-8 ovarian): 15.3 µM | GI50 (PC-3 prostate): 6.22 µM | TGI (PC-3 prostate): 39 µM | GI50 (RPMI-8226 leukemia): 0.924 µM | TGI (RPMI-8226 leukemia): > 100 µM | GI50 (RXF 393 renal): 1.92 µM | TGI (RXF 393 renal): 3.75 µM | GI50 (SF-268 CNS): 3.21 µM | TGI (SF-268 CNS): 10.6 µM | GI50 (SF-295 CNS): 4.95 µM | TGI (SF-295 CNS): 22 µM | GI50 (SF-539 CNS): 2 µM | TGI (SF-539 CNS): 4.09 µM | GI50 (SK-MEL-2 melanoma): 2.63 µM | TGI (SK-MEL-2 melanoma): 7.41 µM | GI50 (SK-MEL-28 melanoma): 2.03 µM | TGI (SK-MEL-28 melanoma): 4.04 µM | GI50 (SK-MEL-5 melanoma): 2.03 µM | TGI (SK-MEL-5 melanoma): 5.25 µM | GI50 (SK-OV-3 ovarian): 4.6 µM | TGI (SK-OV-3 ovarian): 61.2 µM | GI50 (SN12C renal): 3.5 µM | TGI (SN12C renal): 18.5 µM | GI50 (SNB-19 CNS): 4.38 µM | TGI (SNB-19 CNS): 15.8 µM | GI50 (SNB-75 CNS): 4.59 µM | TGI (SNB-75 CNS): 17 µM | GI50 (SR leukemia): 0.85 µM | TGI (SR leukemia): > 100 µM | GI50 (SW-620 colon): 0.452 µM | TGI (SW-620 colon): 1.61 µM | GI50 (T-47D breast): 3.84 µM | TGI (T-47D breast): 22.4 µM | GI50 (TK-10 renal): 3.04 µM | TGI (TK-10 renal): 9.97 µM | GI50 (U251 CNS): 0.888 µM | TGI (U251 CNS): 3.25 µM | GI50 (UACC-257 melanoma): 3.04 µM | TGI (UACC-257 melanoma): 12.1 µM | GI50 (UACC-62 melanoma): 2.06 µM | TGI (UACC-62 melanoma): 4.85 µM | GI50 (UO-31 renal): 1.91 µM | TGI (UO-31 renal): 6.73 µM
